Results from patent publication US20120029177A1, “HETEROCYCLE-AMINO ACID DERIVATIVES FOR TARGETING CANCER TISSUE AND RADIOACTIVE OR NON-RADIOACTIVE LABELED COMPOUNDS THEREOF” (SNU R&DB FOUNDATION, priority 2009, published 2012).

System: SNU-C4 xenografted nude mice
Experiment: Biodistribution study in SNU-C4 xenografted nude mice after intravenous injection
Format: in vivo, mouse
Settings: for % ID/g Tumor: SNU-C4 tumor
Procedure: Human colon cancer cell line SNU-C4 was cultured in RPMI1640 media containing 10% fetal bovine serum and harvested using trypsin. The cells were washed using 10 mL PBS and centrifugation at 3,000 rpm. Each nude mouse was injected with 2×10^5 cells/0.1 mL on the right shoulder subcutaneously. On 13 days post-injection, each 10 μCi/0.1 mL of ^68Ga labeled agent was injected into the xenografted mice through the tail vein. The injected mice were sacrificed at 10 min, 30 min, 1 hr, and 2 hr, cancer, blood, muscle, heart, liver, spleen, stomach, intestine, and bone were obtained, weighed, and their radioactivities were counted. The results were expressed as percentages of injected dose per gram tissue (% ID/g).

[1] = 10 min after intravenous injection
[2] = 30 min after intravenous injection
[3] = 1 hr after intravenous injection
[4] = 2 hr after intravenous injection

## O=C([O-])CN1CCN(CC(=O)[O-])CCN(CC(=O)O)CCN(CC(=O)[O-])CC1.[68Ga+3] [^68Ga-DOTA, reference compound]
[1]
  % ID/g Tumor: 2.55 ± 0.81 % ID/g
  % ID/g Blood: 7.52 ± 0.77 % ID/g
  % ID/g Bone: 1.86 ± 0.22 % ID/g
  % ID/g Heart: 2.04 ± 0.19 % ID/g
  % ID/g Intestine: 1.62 ± 0.11 % ID/g
  % ID/g Kidney: 16.19 ± 1.83 % ID/g
  % ID/g Liver: 1.30 ± 0.15 % ID/g
  % ID/g Muscle: 2.08 ± 0.11 % ID/g
  % ID/g Spleen: 1.41 ± 0.08 % ID/g
  % ID/g Stomach: 1.86 ± 0.39 % ID/g
[2]
  % ID/g Tumor: 1.26 ± 0.23 % ID/g
  % ID/g Blood: 2.76 ± 0.41 % ID/g
  % ID/g Bone: 0.85 ± 0.11 % ID/g
  % ID/g Heart: 0.68 ± 0.09 % ID/g
  % ID/g Intestine: 0.68 ± 0.08 % ID/g
  % ID/g Kidney: 6.33 ± 0.95 % ID/g
  % ID/g Liver: 0.60 ± 0.08 % ID/g
  % ID/g Muscle: 0.70 ± 0.12 % ID/g
  % ID/g Spleen: 0.56 ± 0.07 % ID/g
  % ID/g Stomach: 0.72 ± 0.15 % ID/g
[3]
  % ID/g Tumor: 0.60 ± 0.06 % ID/g
  % ID/g Blood: 0.90 ± 0.19 % ID/g
  % ID/g Bone: 0.33 ± 0.10 % ID/g
  % ID/g Heart: 0.23 ± 0.08 % ID/g
  % ID/g Intestine: 0.36 ± 0.05 % ID/g
  % ID/g Kidney: 4.13 ± 1.13 % ID/g
  % ID/g Liver: 0.32 ± 0.04 % ID/g
  % ID/g Muscle: 0.26 ± 0.12 % ID/g
  % ID/g Spleen: 0.27 ± 0.06 % ID/g
  % ID/g Stomach: 0.26 ± 0.06 % ID/g
[4]
  % ID/g Tumor: 0.41 ± 0.09 % ID/g
  % ID/g Blood: 0.21 ± 0.01 % ID/g
  % ID/g Bone: 0.17 ± 0.17 % ID/g
  % ID/g Heart: 0.08 ± 0.05 % ID/g
  % ID/g Intestine: 0.26 ± 0.08 % ID/g
  % ID/g Kidney: 2.92 ± 0.97 % ID/g
  % ID/g Liver: 0.21 ± 0.03 % ID/g
  % ID/g Muscle: 0.10 ± 0.04 % ID/g
  % ID/g Spleen: 0.18 ± 0.06 % ID/g
  % ID/g Stomach: 0.10 ± 0.03 % ID/g

## O=C([O-])CN1CCN(CC(=O)[O-])CCN(CC(=O)[O-])CC1.[68Ga+3] [^68Ga-NOTA, reference compound]
[1]
  % ID/g Tumor: 2.69 ± 0.19 % ID/g
  % ID/g Blood: 7.13 ± 0.77 % ID/g
  % ID/g Bone: 1.95 ± 0.06 % ID/g
  % ID/g Heart: 1.83 ± 0.16 % ID/g
  % ID/g Intestine: 1.52 ± 0.08 % ID/g
  % ID/g Kidney: 11.61 ± 0.61 % ID/g
  % ID/g Liver: 1.98 ± 0.19 % ID/g
  % ID/g Muscle: 1.68 ± 0.86 % ID/g
  % ID/g Spleen: 1.41 ± 0.19 % ID/g
  % ID/g Stomach: 2.13 ± 0.26 % ID/g
[2]
  % ID/g Tumor: 1.28 ± 0.22 % ID/g
  % ID/g Blood: 2.55 ± 0.31 % ID/g
  % ID/g Bone: 0.65 ± 0.16 % ID/g
  % ID/g Heart: 0.59 ± 0.07 % ID/g
  % ID/g Intestine: 0.84 ± 0.10 % ID/g
  % ID/g Kidney: 7.44 ± 1.29 % ID/g
  % ID/g Liver: 1.44 ± 0.29 % ID/g
  % ID/g Muscle: 0.77 ± 0.19 % ID/g
  % ID/g Spleen: 0.62 ± 0.09 % ID/g
  % ID/g Stomach: 0.76 ± 0.31 % ID/g
[3]
  % ID/g Tumor: 0.59 ± 0.18 % ID/g
  % ID/g Blood: 0.41 ± 0.24 % ID/g
  % ID/g Bone: 0.15 ± 0.09 % ID/g
  % ID/g Heart: 0.15 ± 0.10 % ID/g
  % ID/g Intestine: 0.33 ± 0.14 % ID/g
  % ID/g Kidney: 3.56 ± 2.10 % ID/g
  % ID/g Liver: 1.04 ± 0.35 % ID/g
  % ID/g Muscle: 0.20 ± 0.17 % ID/g
  % ID/g Spleen: 0.22 ± 0.09 % ID/g
  % ID/g Stomach: 0.20 ± 0.10 % ID/g
[4]
  % ID/g Tumor: 0.43 ± 0.06 % ID/g
  % ID/g Blood: 0.07 ± 0.00 % ID/g
  % ID/g Bone: 0.06 ± 0.07 % ID/g
  % ID/g Heart: 0.07 ± 0.07 % ID/g
  % ID/g Intestine: 0.47 ± 0.17 % ID/g
  % ID/g Kidney: 2.73 ± 0.32 % ID/g
  % ID/g Liver: 1.21 ± 0.21 % ID/g
  % ID/g Muscle: 0.04 ± 0.01 % ID/g
  % ID/g Spleen: 0.19 ± 0.03 % ID/g
  % ID/g Stomach: 0.11 ± 0.03 % ID/g

## O=C([O-])CN1CCNCCN(CC(=O)[O-])CCN(CC(=O)[O-])CC1.[68Ga+3] [^68Ga-DO3A, reference compound]
[1]
  % ID/g Tumor: 3.14 ± 0.73 % ID/g
  % ID/g Blood: 6.96 ± 0.18 % ID/g
  % ID/g Bone: 1.64 ± 0.48 % ID/g
  % ID/g Heart: 1.75 ± 0.12 % ID/g
  % ID/g Intestine: 1.87 ± 0.06 % ID/g
  % ID/g Kidney: 11.96 ± 0.51 % ID/g
  % ID/g Liver: 1.99 ± 0.03 % ID/g
  % ID/g Lung: 5.81 ± 0.54 % ID/g
  % ID/g Muscle: 1.69 ± 0.39 % ID/g
  % ID/g Spleen: 1.63 ± 0.08 % ID/g
  % ID/g Stomach: 2.37 ± 0.56 % ID/g
[2]
  % ID/g Tumor: 1.83 ± 0.20 % ID/g
  % ID/g Blood: 3.21 ± 0.58 % ID/g
  % ID/g Bone: 0.97 ± 0.28 % ID/g
  % ID/g Heart: 0.77 ± 0.11 % ID/g
  % ID/g Intestine: 1.00 ± 0.14 % ID/g
  % ID/g Kidney: 7.85 ± 1.00 % ID/g
  % ID/g Liver: 1.35 ± 0.13 % ID/g
  % ID/g Lung: 2.82 ± 0.59 % ID/g
  % ID/g Muscle: 0.92 ± 0.27 % ID/g
  % ID/g Spleen: 0.95 ± 0.14 % ID/g
  % ID/g Stomach: 1.00 ± 0.24 % ID/g
[3]
  % ID/g Tumor: 0.93 ± 0.33 % ID/g
  % ID/g Blood: 1.03 ± 0.34 % ID/g
  % ID/g Bone: 0.38 ± 0.12 % ID/g
  % ID/g Heart: 0.32 ± 0.09 % ID/g
  % ID/g Intestine: 0.64 ± 0.17 % ID/g
  % ID/g Kidney: 6.52 ± 3.13 % ID/g
  % ID/g Liver: 1.02 ± 0.16 % ID/g
  % ID/g Lung: 1.26 ± 0.28 % ID/g
  % ID/g Muscle: 0.32 ± 0.17 % ID/g
  % ID/g Spleen: 0.64 ± 0.09 % ID/g
  % ID/g Stomach: 0.43 ± 0.20 % ID/g
[4]
  % ID/g Tumor: 0.54 ± 0.04 % ID/g
  % ID/g Blood: 0.22 ± 0.02 % ID/g
  % ID/g Bone: 0.28 ± 0.33 % ID/g
  % ID/g Heart: 0.06 ± 0.09 % ID/g
  % ID/g Intestine: 0.42 ± 0.08 % ID/g
  % ID/g Kidney: 7.50 ± 3.82 % ID/g
  % ID/g Liver: 0.93 ± 0.05 % ID/g
  % ID/g Lung: 0.61 ± 0.23 % ID/g
  % ID/g Muscle: 0.10 ± 0.03 % ID/g
  % ID/g Spleen: 0.53 ± 0.11 % ID/g
  % ID/g Stomach: 0.16 ± 0.05 % ID/g

## O=C([O-])CN1CCNCCN(CC(=O)[O-])CCNCC1.[68Ga+3] [^68Ga-DO2A, reference compound]
[1]
  % ID/g Tumor: 2.71 ± 0.51 % ID/g
  % ID/g Blood: 7.82 ± 1.05 % ID/g
  % ID/g Bone: 2.56 ± 0.61 % ID/g
  % ID/g Heart: 2.33 ± 0.32 % ID/g
  % ID/g Intestine: 2.24 ± 0.36 % ID/g
  % ID/g Kidney: 32.32 ± 21.63 % ID/g
  % ID/g Liver: 2.91 ± 0.31 % ID/g
  % ID/g Lung: 6.96 ± 1.06 % ID/g
  % ID/g Muscle: 2.81 ± 0.82 % ID/g
  % ID/g Spleen: 1.86 ± 0.24 % ID/g
  % ID/g Stomach: 2.52 ± 0.46 % ID/g
[2]
  % ID/g Tumor: 2.10 ± 0.23 % ID/g
  % ID/g Blood: 3.61 ± 0.74 % ID/g
  % ID/g Bone: 1.54 ± 0.53 % ID/g
  % ID/g Heart: 0.97 ± 0.20 % ID/g
  % ID/g Intestine: 1.27 ± 0.25 % ID/g
  % ID/g Kidney: 13.61 ± 3.98 % ID/g
  % ID/g Liver: 2.75 ± 0.49 % ID/g
  % ID/g Lung: 3.57 ± 0.80 % ID/g
  % ID/g Muscle: 1.45 ± 0.42 % ID/g
  % ID/g Spleen: 1.03 ± 0.22 % ID/g
  % ID/g Stomach: 1.22 ± 0.32 % ID/g
[3]
  % ID/g Tumor: 0.99 ± 0.10 % ID/g
  % ID/g Blood: 1.12 ± 0.27 % ID/g
  % ID/g Bone: 0.72 ± 0.23 % ID/g
  % ID/g Heart: 0.37 ± 0.10 % ID/g
  % ID/g Intestine: 0.68 ± 0.11 % ID/g
  % ID/g Kidney: 8.46 ± 2.11 % ID/g
  % ID/g Liver: 2.31 ± 0.27 % ID/g
  % ID/g Lung: 1.32 ± 0.35 % ID/g
  % ID/g Muscle: 0.45 ± 0.17 % ID/g
  % ID/g Spleen: 0.47 ± 0.10 % ID/g
  % ID/g Stomach: 0.38 ± 0.05 % ID/g
[4]
  % ID/g Tumor: 0.67 ± 0.12 % ID/g
  % ID/g Blood: 0.44 ± 0.06 % ID/g
  % ID/g Bone: 0.58 ± 0.19 % ID/g
  % ID/g Heart: 0.23 ± 0.03 % ID/g
  % ID/g Intestine: 0.62 ± 0.07 % ID/g
  % ID/g Kidney: 6.90 ± 1.10 % ID/g
  % ID/g Liver: 2.17 ± 0.20 % ID/g
  % ID/g Lung: 0.87 ± 0.25 % ID/g
  % ID/g Muscle: 0.13 ± 0.07 % ID/g
  % ID/g Spleen: 0.38 ± 0.08 % ID/g
  % ID/g Stomach: 0.18 ± 0.03 % ID/g
